Experimental findings from patent publication US12226417B2, “Fatty liver disease treatment using glucocorticoid and mineralocorticoid receptor antagonists” (Corcept Therapeutics, Inc., priority 2014, dated 2025) are described below.

Experiment [1] deals with T1, glucocorticoid receptor (GR) (Homo sapiens, UniProt P04150).
T1 construct: contains endogenous glucocorticoid receptors; endogenous in cells; host or cells: SW1353/MMTV-5 (human chondrosarcoma, stably transfected with pMAMneo-Luc reporter)
T1 sequence (P04150 1-777): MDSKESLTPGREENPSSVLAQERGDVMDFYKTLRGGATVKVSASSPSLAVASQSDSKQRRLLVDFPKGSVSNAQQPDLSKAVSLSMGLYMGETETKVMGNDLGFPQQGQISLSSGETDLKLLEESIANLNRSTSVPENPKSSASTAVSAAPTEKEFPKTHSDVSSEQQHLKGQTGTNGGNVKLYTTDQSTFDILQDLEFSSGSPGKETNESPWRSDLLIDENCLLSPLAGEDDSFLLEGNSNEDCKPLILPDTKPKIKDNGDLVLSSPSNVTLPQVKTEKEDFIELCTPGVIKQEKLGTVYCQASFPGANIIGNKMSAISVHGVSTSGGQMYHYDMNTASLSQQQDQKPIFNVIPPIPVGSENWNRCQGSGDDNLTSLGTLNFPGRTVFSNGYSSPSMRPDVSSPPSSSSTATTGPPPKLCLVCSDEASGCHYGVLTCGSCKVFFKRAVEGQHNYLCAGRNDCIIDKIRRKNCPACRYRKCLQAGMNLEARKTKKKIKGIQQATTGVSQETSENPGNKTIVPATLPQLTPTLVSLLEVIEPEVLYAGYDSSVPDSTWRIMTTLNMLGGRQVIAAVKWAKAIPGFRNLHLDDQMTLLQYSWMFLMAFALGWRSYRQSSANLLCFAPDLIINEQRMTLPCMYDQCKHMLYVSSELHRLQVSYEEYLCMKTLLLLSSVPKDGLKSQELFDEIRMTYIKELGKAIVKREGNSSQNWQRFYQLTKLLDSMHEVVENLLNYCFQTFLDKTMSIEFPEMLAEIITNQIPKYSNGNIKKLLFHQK
In words: GR reporter gene assay using SW1353/MMTV-5 cells. The class given is cell-based. On the procedure:
SW1353/MMTV-5 is an adherent human chondrosarcoma cell line that contains endogenous glucocorticoid receptors. It was transfected with a plasmid (pMAMneo-Luc) encoding firefly luciferase located behind a glucocorticoid-responsive element (GRE) derived from a viral promoter (long terminal repeat of mouse mammary tumor virus). A stable cell line SW1353/MMTV-5 was selected with geneticin, which was required to maintain this plasmid.
SW1353/MMTV-5 cells were distributed in 96-well plates and incubated in medium (without geneticin) for 24 hrs.
Background: Reporter assays use an easily measured gene product as a stand-in for the process of interest.

The target of experiment [2] is T2, mineralocorticoid receptor (MR) (Homo sapiens, UniProt P08235).
T2 construct: containing endogenous mineralocorticoid and progesterone receptors (PR); endogenous in cells; host or cells: T47D/MMTV-5 (human breast carcinoma, stably transfected with pMAMneo-Luc reporter)
T2 sequence (P08235 1-984): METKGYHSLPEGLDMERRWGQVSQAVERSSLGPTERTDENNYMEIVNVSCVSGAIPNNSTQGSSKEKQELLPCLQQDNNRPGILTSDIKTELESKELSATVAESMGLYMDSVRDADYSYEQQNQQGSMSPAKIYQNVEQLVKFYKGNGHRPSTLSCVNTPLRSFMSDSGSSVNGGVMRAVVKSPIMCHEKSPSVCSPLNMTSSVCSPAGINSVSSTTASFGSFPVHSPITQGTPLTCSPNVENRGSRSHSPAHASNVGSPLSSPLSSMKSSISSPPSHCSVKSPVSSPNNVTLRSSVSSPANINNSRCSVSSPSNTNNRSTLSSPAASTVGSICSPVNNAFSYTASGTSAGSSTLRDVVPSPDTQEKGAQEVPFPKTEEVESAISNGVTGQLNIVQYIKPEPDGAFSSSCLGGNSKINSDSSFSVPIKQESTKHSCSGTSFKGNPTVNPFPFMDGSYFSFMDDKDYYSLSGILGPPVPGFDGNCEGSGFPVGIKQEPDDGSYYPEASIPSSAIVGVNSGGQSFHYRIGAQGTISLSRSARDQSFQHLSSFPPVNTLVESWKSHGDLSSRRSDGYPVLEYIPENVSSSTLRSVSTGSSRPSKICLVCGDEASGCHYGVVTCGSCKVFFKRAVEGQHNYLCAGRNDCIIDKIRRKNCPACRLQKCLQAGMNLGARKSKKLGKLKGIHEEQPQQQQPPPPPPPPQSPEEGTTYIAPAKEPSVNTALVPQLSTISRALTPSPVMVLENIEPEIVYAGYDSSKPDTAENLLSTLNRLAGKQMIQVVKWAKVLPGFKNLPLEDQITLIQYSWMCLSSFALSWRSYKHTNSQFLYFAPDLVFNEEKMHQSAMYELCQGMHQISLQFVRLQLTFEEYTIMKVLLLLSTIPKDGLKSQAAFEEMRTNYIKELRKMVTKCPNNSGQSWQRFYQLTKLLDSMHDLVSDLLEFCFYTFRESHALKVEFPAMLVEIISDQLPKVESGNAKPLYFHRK
In words: MR reporter gene assay using T47D/MMTV-5 cells. It is filed as cell-based. On the procedure: (§1) As described for the SW1353 cell line above, T47D cells were transfected with the same pMAMneo-Luc plasmid, and stable lines were selected with geneticin.
(§2) T47D/MMTV-5 calls were distributed in 96-well plates (100 μl) in RPMI640 medium+10% charcoal stripped FCS. The cells were incubated for 24 hours in a CO2 oven.

Experiment [3] concerns the target T3, progesterone receptor (PR) (Homo sapiens, UniProt P06401).
T3 construct: containing endogenous mineralocorticoid and progesterone receptors (PR); endogenous in cells; host or cells: T47D/MMTV-5 (human breast carcinoma, stably transfected with pMAMneo-Luc reporter)
T3 sequence (P06401 1-933): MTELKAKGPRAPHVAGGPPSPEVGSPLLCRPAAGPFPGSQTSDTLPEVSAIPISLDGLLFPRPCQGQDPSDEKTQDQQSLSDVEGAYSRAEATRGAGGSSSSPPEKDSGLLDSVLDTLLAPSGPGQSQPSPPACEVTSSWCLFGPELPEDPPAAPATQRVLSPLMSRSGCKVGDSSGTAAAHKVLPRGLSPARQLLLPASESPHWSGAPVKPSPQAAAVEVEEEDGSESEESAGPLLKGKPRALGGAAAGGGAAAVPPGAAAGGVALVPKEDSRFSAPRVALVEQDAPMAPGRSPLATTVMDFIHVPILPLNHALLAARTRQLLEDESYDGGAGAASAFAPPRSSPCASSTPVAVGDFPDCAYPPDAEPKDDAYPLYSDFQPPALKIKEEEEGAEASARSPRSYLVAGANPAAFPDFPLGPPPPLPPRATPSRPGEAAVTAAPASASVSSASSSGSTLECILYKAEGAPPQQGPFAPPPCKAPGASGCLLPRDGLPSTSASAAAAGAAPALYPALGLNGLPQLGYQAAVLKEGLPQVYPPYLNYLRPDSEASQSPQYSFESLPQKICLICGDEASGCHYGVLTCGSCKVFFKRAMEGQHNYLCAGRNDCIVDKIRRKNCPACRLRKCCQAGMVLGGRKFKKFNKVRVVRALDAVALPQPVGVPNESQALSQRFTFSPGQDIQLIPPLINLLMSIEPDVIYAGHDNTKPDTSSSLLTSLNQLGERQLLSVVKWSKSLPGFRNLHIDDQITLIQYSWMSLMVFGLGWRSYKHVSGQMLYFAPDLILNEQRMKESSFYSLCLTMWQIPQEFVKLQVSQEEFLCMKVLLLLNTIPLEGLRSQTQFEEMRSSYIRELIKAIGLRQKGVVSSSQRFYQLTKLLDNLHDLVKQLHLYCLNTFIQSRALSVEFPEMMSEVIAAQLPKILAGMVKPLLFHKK
In words: PR reporter gene assay using T47D/MMTV-5 cells. It is filed as cell-based. The note with it: antagonist mode, 50 nM progesterone. On the procedure: as §1, §2

The subject of experiment [4] is C57B16/J mice given a high fat diet. Nature of the experiment: Determination of liver lipids in mice fed a high fat diet (Oil Red O staining). Particulars: high fat diet (60% fat) three weeks; for fatty liver compared to the controls: 60 mg/kg/day in the food. The class given is in vivo, mouse. On the procedure:
C57B16/J mice (n=8 per group) were given a high fat diet (60% fat) for three weeks and then sacrificed. Livers were collected and weighed. Liver slices were prepared and analysed for lipid levels by Oil Red 0 staining (FIGS. 1 and 3). One group of mice received Compound 1 mixed in the food (60 mg/kg/day) whilst another group of mice received vehicle mixed in the food. […] Compound 1 has GR antagonist activity and some MR antagonist activity.

The next experiment addresses T4, human recombinant GR (Homo sapiens, UniProt P04150).
T4 construct: β-galactosidase enzyme fragment (complementation partner); host or cells: CHO-K1
T4 sequence (P04150 1-777): T1 sequence (P04150 1-777)
Nature of the experiment: GR protein:protein interaction assay (DiscoveRx, CHO-K1, PGC1α). The class given is cell-based. An excerpt:
(§3) Protein:protein interaction assays were used to determine the ability of test compounds to act as antagonists of the glucocorticoid receptor and/or mineralocorticoid receptor. These assays utilize a commercial assay platform provided by DiscoveRx Corp. (Fremont, CA). DiscoveRx technology is based on β-galactosidase enzyme fragment complementation using a luminogenic substrate. Briefly, Chinese hamster ovary cells (CHO-K1) have been engineered to express either human recombinant GR or MR together with a steroid responsive coactivator protein (SRCP) called PGC1α (peroxisome proliferator activated receptor gamma coactivator lα). The assay measures the net outcome of GR or MR activation, i.e., nuclear translocation from the cytoplasm and interaction of the GR or MR with the coactivator PGC1α in the cell nucleus. The assay can be configured in both agonist and antagonist modes.
The cells (100 μl) were plated into 96 well plates and placed in a 37° C., 5% CO2 incubator for 24 hours. After removing the cells from the incubator, 5 μl of test compound or vehicle was added to each well, and the plates were incubated for 1 hour at 37° C., 5% CO2. […] The detection reagent was added, 55 μl per well, and the plates were incubated at room temperature in the dark without mixing. The plates were read for luminescence using an EnVision® plate reader (3 hour read).

Another experiment concerns the target T5, human recombinant MR (Homo sapiens, UniProt P08235).
T5 construct: β-galactosidase enzyme fragment (complementation partner); host or cells: CHO-K1
T5 sequence (P08235 1-984): T2 sequence (P08235 1-984)
Nature of the experiment: MR protein:protein interaction assay (DiscoveRx, CHO-K1, PGC1α). The class given is cell-based.
Excerpt: as §3
The cells (100 μl) were plated into 96 well plates and placed in a 37° C., 5% CO2 incubator for 24 hours. After removing the cells from the incubator, 5 μl of test compound or vehicle was added to each well, and the plates were incubated for 1 hour at 37° C., 5% CO2. […] The detection reagent was added, 55 μl per well, and the plates were incubated at room temperature in the dark without mixing. The plates were read for luminescence using an EnVision® (Perkin Elmer, Walthan, MA) plate reader (3 hour read).

The term Ki denotes the dissociation constant of the complex between target and ligand, obtained from inhibition or displacement. Consider `O=c1[nH]c(=O)c(Cc2cccc(C(F)(F)F)c2)c([C@H]2CC[C@H](c3ccccc3)CC2)[nH]1` [Compound 1, (E)-6-(4-phenylcyclohexyl)-5-(3-trifluoromethylbenzyl)-1H-pyrimidine-2,4-dione], for which the Ki in experiment [1] was found to be 24 nM; in experiment [2], 148 nM; at human recombinant GR, 118 nM; on human recombinant MR, 125 nM. Moreover, the “activity in progesterone receptor reporter gene assay” value in experiment [3] was “inactive”. For the same compound, the “fatty liver compared to the controls” value in experiment [4] was “did not induce fatty liver”. Also, in experiment [4] (60 mg/kg/day mixed in the food, versus vehicle control), the “lipid droplets in livers (Oil Red O staining)” value is recorded as “no or low level of lipid droplets”.
In the case of `CC#C[C@]1(O)CC[C@H]2[C@@H]3CCC4=CC(=O)CCC4=C3[C@@H](c3ccc(N(C)C)cc3)C[C@@]21C` [mifepristone, reference compound], the “fatty liver compared to the controls” value in experiment [4] is on record as “increased fatty liver compared to the controls”.
